According to US20240336567A1, “PESTICIDAL AND HERBICIDAL COMPOUNDS AND METHODS OF USE THEREOF” (AG Plenus Ltd, priority 2021, published 2024):

Assays:
Arabidopsis thaliana = experiment: HTPS (high throughput on soil) - Dicot - Post-emergence; type: in vivo; settings: N/A: not active; for Emax: read-out: HTPS - Dicot - Post Max effect; for HTPS - Dicot - Post ED50: from normalized green area
How it was run: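 Single plants per well in sand, greenhouse-grown; at 2-true-leaf stage 5 μL compound in 50% acetone/0.1% tween-20 applied to leaves, top dose 1.5 Kg/Ha, 2.5-fold dilutions, 8 repeats. Green area imaged (11 and 18 DAA) for % inhibition; ED50/ED75/ED90 fitted from dose-response, t-test versus controls.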

[1] = in vitro thermal shift (binding of compound to the target); settings: thermal shift caused by binding of the compound to the (unnamed) target
POAAN = experiment: In-planta LTP pre-emergence, visual phenotype; type: in vivo, Poa annua; settings: monocot; for pest or weed control at 2000 g/ha: Poa annua, 432 h, read-out: IG Inhibited growth (% effect)
Experimental: (§1) A basic panel of 8 weed species (Table 3) were sowed in 4×4×7 cm plastic pots containing inert sand (Sweet sand), intensively washed using osmosis water. Each specie was sowed in a separate pot. In each pot 10-15 seeds were sowed according to the specie viability. Sowing was performed one day before application. The plants were grown for 21 days in a controlled greenhouse (26±2° C. day 20±2° C. night). Hood irrigation (tap water+Shefer 5:3:8 8 mM) was given at a 50% water content by weight. Compounds were soluble in water (DDW), and commercial herbicide control was soluble in formulation B (Table 4). Application was conducted with an industrial sprayer (TeeJet 6502E nozzle) at a rate of 2 kg/ha and spray volume of […]. Pre-emergence advanced dose response experiment application was conducted at six rates between 1-0.0312 kg/ha and spray volume of […]. Percentage of emergence was evaluated at 15 DAA. Visual phenotyping was recorded using a scale of 0-6 (0: no visible effect, 6: maximum effect) at 18 DAA. All experiments included an untreated control, a solvent control and a positive control (commercial herbicide A.I.). Statistical analysis for visual phenotyping determined by a median value of ≥3.5 and Fisher test (pval≤0.05). Statistical analysis for plant emergence determined by % emergence ≥50 and T test (pval≤0.05), as well as Wilcox test (pval≤0.05).

AMAPA [2] = experiment: In-planta LTP pre-emergence, visual phenotype; type: in vivo, Amaranthus palmeri; settings: dicot; for pest or weed control at 2000 g/ha: Amaranthus palmeri, 432 h, read-out: IG Inhibited growth (% effect)
Experimental: as §1

AMAPA [3] = experiment: In-planta LTP post-emergence, visual phenotype; type: in vivo, Amaranthus palmeri; settings: dicot
Experimental: A basic panel of eight weed species (Table 3) sowed in 4×4×7 cm plastic pots containing a garden mix (klasmann). Each specie was sowed in a separate pot. In each pot, 10-15 seeds were sowed according to the specie viability. Timing of application determined at a 1-2 true leaf stage. The plants grew for 30 days in a controlled greenhouse (26±2° C. day, 20±2° C. night). Hood irrigation (tap water+Shefer 5:3:8 8 mM) was given at a 50% water content by weight. Two days before application, the tested plants thinned down to three plants per pot. Compounds were soluble in water (DDW), and commercial herbicide control was soluble in formulation B (Table 4). Before application, 1% (v/v) crop oil and 0.02% (v/v) surfactant (Tergitol™ 15-5-7) were added to the solution. Application was conducted with an industrial sprayer (TeeJet 6502E nozzle) at a rate of 2 kg/ha and spray volume of […]. Plants were evaluated at 3 time points (4, 8, 12 days after application (DAA)). At each time point, visual phenotyping was recorded using a scale of 0-6 (0: no visible effect, 6: maximum effect). At 12 DAA, plants foliage was harvested, dried and weighed for dry weight analysis.
Post-emergence advanced dose response experiment included 4 species: SETVI, ECHCO, AMAPA, ABUTH (Tables 3, 5). Application was conducted at six rates between 0.6-0.0187 kg/ha and spray volume of […]. Plants were evaluated at 4 time points (6, 12, 18 and 26 DAA). At each time point, visual phenotyping was recorded using a scale of 0-6 (0: no visible effect, 6: maximum effect). At 26 DAA, plants foliage was harvested, dried and weighed for dry weight analysis.
Post-emergence advanced wide panel experiment included 24 weed species (Table 5). Application was conducted at 2 rates of 2 kg/ha and 0.25 kg/ha and spray volume of […]. Visual phenotyping was recorded at 4, 11, 17 and 20 DAA using a scale of 0-6 (0: no visible effect, 6: maximum effect). At 21 DAA, plants foliage was harvested, dried, and weighed for dry weight analysis. All experiments included an untreated control, a solvent control, and a positive control (commercial herbicide A.I.). Statistical analysis for visual phenotyping determined by a median value of ≥3.5 and Fisher test (pval≤0.05). Statistical analysis for dry weight determined by % inhibition ≥50 and T test (pval≤0.05), as well as Wilcox test (pval≤0.05).

LOLPE = experiment: In-planta LTP pre-emergence, visual phenotype; type: in vivo, Lolium perenne; settings: monocot
Experimental: as §1

| in vitro Thermal Shift [1] | SMILES | Emax (Arabidopsis thaliana) | HTPS - Dicot - Post ED50 (Arabidopsis thaliana) | pest or weed control at 2000 g/ha (POAAN) | DE Disturbed emergence (% effect) (POAAN) | pest or weed control at 2000 g/ha (AMAPA [2]) | BL Bleaching (% effect) (AMAPA [3]) | IG Inhibited growth (% effect) (LOLPE) | IG Inhibited growth (% effect) (AMAPA [3]) | DE Disturbed emergence (% effect) (LOLPE) | DAB Disturbed apical bud (% effect) (AMAPA [2]) |
| --- | --- | --- | --- | --- | --- | --- | --- | --- | --- | --- | --- |
| 4 °C | C#CCOC(=O)c1cccc(OCC(C)N)c1 (stereo not shown) [Compound 111] | 100% | 51 g/ha | 100% | DE (100), % | 60% | BL (40) % |  |  |  |  |
| 4 °C | CCCCOC(=O)c1cccc(OCC(C)N)c1 (stereo not shown) [Compound 112] | 100% | 300 g/ha | 100% | DE (100), % | 60% |  | IG (40) % | IG (60), % |  |  |
| 13 °C | C[C@@H](N)COc1cccc(C(=O)O)c1 [Compound 154] | 100% | 16 g/ha |  | DE (100) % | 60% | BL (60) % | IG (60) % |  |  |  |
| 13 °C | CC(N)COc1cccc(C(=O)O)c1 (stereo not shown) [Compound 106] | 100% | 102 g/ha | 100% | DE (100) % | 60% | BL^2 (60) % |  |  | DE (60) % | DAB (60), % |
